In one assay the test system is p-tau. Kind of assay: tau phosphorylation (p-tau) in cells transfected with ApoE4. Type of assay: cell-based.
Conditions: not given
The method, then: sAPPα or sAPPβ secreted into the cellular media are determined with sAPPα or sAPPβ AlphaLISA immunoassay kits (PerkinElmer) according to the manufacturer's protocol with some modifications. The standards, blanks, and media are diluted with the buffer provided in the kit and added to the plate. During the first incubation step, the analyte is captured either by an antibody recognizing the α-secretase cleavage site at sAPPα C-terminus (clone 2B3) or the sAPPβ C-terminus, and then by a second biotin-labeled antibody specific to the N-terminal common domain of sAPP. In the second incubation step, the biotinylated anti-analyte antibody is bound to the streptavidin-coated donor beads. At the end of this reaction, the plates are read on an EnSpire Alpha 2390 multilabel plate reader equipped with the AlphaScreen module. The Aβ1-42 or 1-40 are determined from media and/or cells using Life Science's sandwich ELISA kit. The levels of Aβ are quantified from a standard curve and normalized to total cellular protein (Spilman et al. (2014) Brain Res. 1551: 25-44; Theendakara et al. (2013) Proc. Natl. Acad. Sci. USA, 10(45): 18303-18308), Tau and p-tau are determined from cell extracts by a solid phase double antibody sandwich ELISA technology designed for quantitative determination of phospho-tau (Antibodies-Online). […]
In the case of `CC(C)CC(=O)Nc1[nH]nc2c1CN(C(=O)C1CCN(C)CC1)C2(C)C` [PHA793887], the p-tau result is “attenuated”.

The test system of the next assay is p-APP. Nature of the assay: APP phosphorylation (p-APP) in cells transfected with ApoE4. Type of assay: cell-based.
Conditions: not given
The procedure:
(§1) sAPPα or sAPPβ secreted into the cellular media are determined with sAPPα or sAPPβ AlphaLISA immunoassay kits (PerkinElmer) according to the manufacturer's protocol with some modifications. The standards, blanks, and media are diluted with the buffer provided in the kit and added to the plate. During the first incubation step, the analyte is captured either by an antibody recognizing the α-secretase cleavage site at sAPPα C-terminus (clone 2B3) or the sAPPβ C-terminus, and then by a second biotin-labeled antibody specific to the N-terminal common domain of sAPP. In the second incubation step, the biotinylated anti-analyte antibody is bound to the streptavidin-coated donor beads. At the end of this reaction, the plates are read on an EnSpire Alpha 2390 multilabel plate reader equipped with the AlphaScreen module. The Aβ1-42 or 1-40 are determined from media and/or cells using Life Science's sandwich ELISA kit. The levels of Aβ are quantified from a standard curve and normalized to total cellular protein (Spilman et al. (2014) Brain Res. 1551: 25-44; Theendakara et al. (2013) Proc. Natl. Acad. Sci. USA, 10(45): 18303-18308), Tau and p-tau are determined from cell extracts by a solid phase double antibody sandwich ELISA technology designed for quantitative determination of phospho-tau (Antibodies-Online). APP and p-APP are determined by the DuoSet IC ELISA (R&D Systems) to measure phosphorylated APP in cell lysates. An immobilized capture antibody specific for APP binds both phosphorylated and unphosphorylated APP. After unbound material is washed away, a biotinylated detection antibody is used to detect either APP or phosphor-APP utilizing a standard HRP format. Using these assay procedures we notice a significant increase in p-tau and p-APP levels in ApoE4-transfected cells. It can be determined whether the primary “hits” reverse the ApoE4-mediated APP-Thr phosphorylation and tau-phosphorylation.
For the molecule `Cc1c[nH]c(-c2cnc(NCCNc3ccc(C#N)cn3)nc2-c2ccc(Cl)cc2Cl)n1` [CHIR99021], the “APP phosphorylation (p-APP)” value is recorded as “reversed”.

As for `CC(C)CC(=O)Nc1[nH]nc2c1CN(C(=O)C1CCN(C)CC1)C2(C)C` [PHA793887], the “APP phosphorylation (p-APP)” value is “attenuated”.

Still in this assay, the particulars now being: listed as CHIR.
Consider `Cc1c[nH]c(-c2cnc(NCCNc3ccc(C#N)cn3)nc2-c2ccc(Cl)cc2Cl)n1` [CHIR99021], for which the “APP phosphorylation (p-APP)” value is given as “reduces APP phosphorylation”.

The subject of a further assay is obese mice.
Assay: not given
The settings on record: cited from earlier work.
With `O=C(Nc1ccccc1-c1cn2c(CN3CCNCC3)csc2n1)c1cnc2ccccc2n1` [SRT1720], the extension of lifespan is recorded as 44%.

For the next assay, the system named is SirT1. Nature of the assay: Primary AlphaLISA screening assay: SirT1 levels in N2a cells stably transfected with ApoE4. The format is cell-based, mouse. The settings on record: N2A neuroblastoma cells stably transfected with ApoE4. The procedure:
We have developed a primary screening assay that is HTS formatable; the assay would be done on N2a cells (mouse neuroblastoma cells) that have been stably transfected with ApoE3 and ApoE4. The cells are treated with drugs and the SirT1 levels are measured using the AlphaLISA assay that we have developed, e.g., as shown in FIG. 11. The illustrated AlphaLISA uses an antibody (Ab, E104, Abcam) that binds the C-terminus of SirT1 and is on the acceptor bead. The N-terminal Ab (D1D7, Abcam) is biotinylated and binds to the donor bead. For the primary assay the Neuro-2a (N2a) cells stably expressing similar levels of hApoE3 or hApoE4 are used. The primary assay can be done in triplicate. The N2a cells have reasonably good endogenous levels of APP thus avoiding the necessity of APP transfection. In general, for the assays N2a cells stably transfected with hApoE3 (E3) or hApoE4 (E4) are plated, e.g., at […] in 384-well plates in […] of growth medium and allowed to attached for 3 h. The E4 cells are treated with compounds overnight, E3 cells are controls. The following day, growth medium is removed and cells are lysed with AlphaLysis buffer complemented with protease and phosphatase inhibitors.
Then, the AlphaLISA assay is run and molecules that can increase or reverse the SirT1 levels in ApoE4 cells are identified. A preliminary estimate, based on the initial screening which yielded two reproducible “hits” from a set of 1000 compounds, which is a 0.2% hit-rate. […] Our initial screening was done on a small library of about 1000 compounds. The assay is translatable to a HTS format.
As to `Clc1cccc(Cl)c1N=C1NCCN1` [Compound A02, clonidine], the “SirT1 levels (dose-response)” value was “flat”.

The same assay, now with this note: initial screen of about 1000 compounds.
In the case of `CNCCC(Oc1ccc(C(F)(F)F)cc1)c1ccccc1` (stereo not drawn) [Prozac], the “effect on SirT1 levels in initial screen” value is recorded as “no affect on SirT1 levels”.

The same assay, now with this note: primary screening assay, ApoE4 cells.
Regarding `CC(C)(Cc1ccc(Cl)cc1)OC(=O)C1CCCCN1` (stereo not drawn) [Compound 19, 1-(4-chlorophenyl)-2-methylpropan-2-yl piperidine-2-carboxylate], the “Primary Assay (SrT1 increase)” value is given as “II (activity II 10-30%)”. Still for that read-out and setting: in the case of `CC(C)(Cc1ccc(Cl)cc1)OC(=O)C(N)CO` (stereo not drawn) [Compound 16, 1-(4-chlorophenyl)-2-methylpropan-2-yl 2-amino-3-hydroxypropanoate] it was “II (activity II 10-30%)”; in that of `CC(C)(Cc1ccc(Cl)cc1)OC(=O)CN` [Compound 7, 1-(4-chlorophenyl)-2-methylpropan-2-yl 2-aminoethanoate], “II (activity II 10-30%)”. The same measure, in the same setting: in the case of `CC(C)(Cc1ccc(Cl)cc1)OC(=O)C(N)CCCCN` (stereo not drawn) [Compound 13, 1-(4-chlorophenyl)-2-methylpropan-2-yl 2,6-diaminohexanoate] it was “II (activity II 10-30%)”. The same measure, in the same setting: in the case of “2-amino-N-(1-(4-chlorophenyl)-2-methylpropan-2-yl)propanamide [Compound 15]” it was “III (activity III > 30 SrT1 increase)”; in that of `CC(N)C(=O)OC(C)(C)Cc1ccc(F)c(F)c1` (stereo not drawn) [Compound 3, 1-(3,4-difluorophenyl)-2-methylpropan-2-yl 2-aminopropanoate], “III (activity III > 30 SrT1 increase)”. Consider “1-(3,4-difluorophenyl)-2-methylpropan-2-yl 2-aminoethanoate [Compound 21]”, for which the “Primary Assay (SrT1 increase)” value is given as “II (activity II 10-30%)”. On the same count and under the same terms, in the case of “1-(4-chlorophenyl)-2-methylpropan-2-yl pyrrolidine-2-carboxylate [Compound 20]” it was “I (activity I < 10%)”; in that of `C[C@H](N)CC(=O)OC(C)(C)Cc1ccc(Cl)cc1` [Compound 18, (S)-1-(4-chlorophenyl)-2-methylpropan-2-yl 3-aminobutanoate], “I (activity I < 10%)”. The same measure, in the same setting: in the case of `CC(C)(Cc1ccc(Cl)cc1)OC(=O)C(N)Cc1ccccc1` (stereo not drawn) [Compound 2, 1-(4-chlorophenyl)-2-methylpropan-2-yl 2-amino-3-phenylpropanoate] it was “I (activity I < 10%)”; in that of `CC(N)C(=O)OC1(Cc2ccc(Cl)cc2)CCC1` (stereo not drawn) [Compound 9, 1-(4-chlorobenzyl)cyclobutyl 2-aminopropanoate], “I (activity I < 10%)”; in that of `CC(N)C(=O)OC(C)(C)CCc1ccc(Cl)cc1` (stereo not drawn) [Compound 12, 4-(4-chlorophenyl)-2-methylbutan-2-yl 2-aminopropanoate], “II (activity II 10-30%)”. With `CC(N)C(=O)NC(C)(C)Cc1ccc(F)c(F)c1` (stereo not drawn) [Compound 22, 2-amino-N-(1-(3,4-difluorophenyl)-2-methylpropan-2-yl)propanamide], the “Primary Assay (SrT1 increase)” value is “III (activity III > 30 SrT1 increase)”. Take `CC(N)C(=O)OC(C)(C)Cc1cc(F)cc(F)c1` (stereo not drawn) [Compound 14, 1-(3,5-difluorophenyl)-2-methylpropan-2-yl 2-aminopropanoate]: the “Primary Assay (SrT1 increase)” value is on record as “III (activity III > 30 SrT1 increase)”.

As to `CC(C)C(N)C(=O)OC(C)(C)Cc1ccc(Cl)cc1` (stereo not drawn) [Compound 8, 1-(4-chlorophenyl)-2-methylpropan-2-yl 2-amino-3-methylbutanoate], the “Primary Assay (SrT1 increase)” value is recorded as “II (activity II 10-30%)”.

For `CC(C)CC(N)C(=O)OC(C)(C)Cc1ccc(Cl)cc1` (stereo not drawn) [Compound 5, 1-(4-chlorophenyl)-2-methylpropan-2-yl 2-amino-4-methylpentanoate], the “Primary Assay (SrT1 increase)” value is given as “I (activity I < 10%)”. Still for that read-out and setting: in the case of `CC(N)C(=O)OC(C)(C)Cc1ccccc1` (stereo not drawn) [Compound 1, 2-methyl-1-phenylpropan-2-yl 2-aminopropanoate] it was “II (activity II 10-30%)”; in that of `CC(N)C(=O)OC(C)(C)Cc1ccc(F)cc1` (stereo not drawn) [Compound 4, 1-(4-fluorophenyl)-2-methylpropan-2-yl 2-aminopropanoate], “II (activity II 10-30%)”.

On to `CNC(C)C(=O)OC(C)(C)Cc1ccc(Cl)cc1` (stereo not drawn) [Compound 23, 1-(4-chlorophenyl)-2-methylpropan-2-yl 2-(methylamino)propanoate], for which the “Primary Assay (SrT1 increase)” value is reported as “I (activity I < 10%)”. The same measure, in the same setting: as for `CC(N)C(=O)OC1(Cc2ccc(Cl)cc2)CCCCC1` (stereo not drawn) [Compound 10, 1-(4-chlorobenzyl)cyclohexyl 2-aminopropanoate], the entry is “I (activity I < 10%)”; as for `CCC(C)C(N)C(=O)OC(C)(C)Cc1ccc(Cl)cc1` (stereo not drawn) [Compound 11, 1-(4-chlorophenyl)-2-methylpropan-2-yl 2-amino-3-methylpentanoate], “II (activity II 10-30%)”; as for `CC(C)(Cc1ccc(Cl)cc1)OC(=O)CCN` [Compound 17, 1-(4-chlorophenyl)-2-methylpropan-2-yl 3-aminopropanoate], “I (activity I < 10%)”. Still for that read-out and setting: in the case of `Cc1ccc(CC(C)(C)OC(=O)C(C)N)cc1` (stereo not drawn) [Compound 6, 2-methyl-1-p-tolylpropan-2-yl 2-aminopropanoate] it was “II (activity II 10-30%)”; in that of `CC(C)(Cc1ccc(F)c(F)c1)NC(=O)C1CCCN1` (stereo not drawn) [Compound 24, N-(1-(3,4-difluorophenyl)-2-methylpropan-2-yl)pyrrolidine-2-carboxamide], “II (activity II 10-30%)”.

The next assay has as its system sAPPα. Kind of assay: sAPPα levels in the presence of ApoE4 (AlphaLISA). Type of assay: cell-based. As to conditions: in the presence of ApoE4 (ApoE4-transfected cells). The method, then:
as §1
On the technique in general: In Alpha technology, singlet oxygen from a donor bead excites a nearby acceptor bead.
Consider `Cc1c[nH]c(-c2cnc(NCCNc3ccc(C#N)cn3)nc2-c2ccc(Cl)cc2Cl)n1` [CHIR99021], for which the sAPPα levels result is “reversed the reduction in sAPPα”.

Staying with this assay, now noted: in the presence of ApoE4 (ApoE4-transfected cells); listed as CHIR.
In the case of `Cc1c[nH]c(-c2cnc(NCCNc3ccc(C#N)cn3)nc2-c2ccc(Cl)cc2Cl)n1` [CHIR99021], the sAPPα levels result is “restores sAPPα levels”.

(Values after patent US20170226059A1, “APOE4-TARGETED THERAPUTICS THAT INCREASE SIRT1” (The Regents of the University of California, priority 2014, published 2017).)
